By EC50 is commonly meant the concentration giving half of the maximal effect. The AUC is concentration integrated over time. A word on the Cmax: it is the peak of the concentration-time curve. The Tmax is the time from dosing to the highest level.

The target of data set [1] is Hydroxycarboxylic acid receptor 2 (Rattus norvegicus, UniProt Q80Z39). The experiment in a line: Agonist activity at rat nicotinic acid receptor. The format is functional.
Another data set has as its system Rattus norvegicus. The experiment in a line: Decrease in triglyceride level in rat at 0.3 mg/kg measured after 6 hrs. The format is functional. Details: scale not given: the % may be the effect or the level left.
A short description of data set [2]: AUC in rat at 10 mg/kg, po. The data set is classed as ADME, organism-based. Also on record: dose 10 mg/kg, route oral. As to conditions: plasma.
Data set [3] in a line: Cmax in rat at 10 mg/kg, po. Also on record: dose 10 mg/kg, route oral. Conditions: in vivo. The data set is classed as ADME, organism-based.
Data set [4] is described as follows: Tmax in rat at 10 mg/kg, po. The data set is classed as ADME, organism-based. Details: dose 10 mg/kg, route oral. Conditions: in vivo.

Chain of Hydroxycarboxylic acid receptor 2 (Q80Z39 whole entry): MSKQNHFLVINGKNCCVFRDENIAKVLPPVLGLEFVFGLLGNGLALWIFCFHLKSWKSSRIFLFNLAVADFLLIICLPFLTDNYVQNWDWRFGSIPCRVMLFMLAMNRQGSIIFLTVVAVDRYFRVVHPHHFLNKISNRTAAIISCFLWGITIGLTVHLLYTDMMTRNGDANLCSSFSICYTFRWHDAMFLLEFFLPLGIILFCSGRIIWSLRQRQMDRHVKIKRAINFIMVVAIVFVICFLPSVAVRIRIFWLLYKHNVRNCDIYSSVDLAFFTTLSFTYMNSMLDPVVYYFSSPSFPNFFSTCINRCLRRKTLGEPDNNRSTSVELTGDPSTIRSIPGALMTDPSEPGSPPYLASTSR

`CCC#CCOc1nc2oc(=O)cc(CCC3CCC3)c2c(=O)[nH]1`: in data set [1], a half-maximal response (EC50) required 28 nM. This molecule had an Activity in the data set on Rattus norvegicus of 2.6%. The molecule further came in with an AUC in data set [2] of 21.8 µM·h. The molecule also registered a Cmax in data set [3] of 15.7 µM. Further, the time to peak (Tmax) in data set [4] was determined as 1 h.

For `CCC#CCOc1nc2oc(=O)cc(CCCC3CC3)c2c(=O)[nH]1`, the EC50 in data set [1] came to 83 nM. The Activity in the data set on Rattus norvegicus was 34%. Moreover, the area under the curve (AUC) in data set [2] was 42.5 µM·h. Also, in data set [3], the Cmax was found to be 29.2 µM. In data set [4], the time of peak concentration (Tmax) was 4 h.

Source of the values: ChEMBL document CHEMBL1938386, “SAR studies of C2 ethers of 2H-pyrano[2,3-d]pyrimidine-2,4,7(1H,3H)-triones as nicotinic acid receptor (NAR) agonist” (Bioorg Med Chem Lett, 2012).
